According to the supplement of paper PMC10307832:

Legend:
Experiment in all cases: relative viability (nuclei count vs DMSO), 5 days (fraction); higher = more cells survive
[1] = tested on: NCI-H2405
Summary of the method: (§1)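 Each reported value is a median over duplicate plates. It expresses relative viability: treated-well nuclei count divided by vehicle-well nuclei count. Lung cancer cell lines in 1536-well plates were dosed by pin tool a day after seeding, alone with one drug or with a fixed anchor-drug dose plus five library-drug doses (not always all listed) in √10 steps, and nuclei were counted after 5 days.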

[2] = tested on: HCC-44
Summary of the method: as §1

[3] = tested on: NCI-H1944
Summary of the method: as §1

[4] = tested on: NCI-H650
Summary of the method: as §1

[5] = tested on: NCI-H2085
Summary of the method: as §1

[6] = tested on: SK-MES-1
Summary of the method: as §1

[7] = tested on: NCI-H1793
Summary of the method: as §1

[8] = tested on: NCI-H1395
Summary of the method: as §1

[9] = tested on: NCI-H520
Summary of the method: as §1

[10] = tested on: NCI-H2087
Summary of the method: as §1

[11] = tested on: LCLC-103H
Summary of the method: as §1

[12] = tested on: NCI-H2023
Summary of the method: as §1

[13] = tested on: COR-L23
Summary of the method: as §1

[14] = tested on: LU99A
Summary of the method: as §1

[15] = tested on: ChaGo-K-1
Summary of the method: as §1

[16] = tested on: EMC-BAC-2
Summary of the method: as §1

[17] = tested on: H3255
Summary of the method: as §1

[18] = tested on: HCC-827
Summary of the method: as §1

[19] = tested on: NCI-H838
Summary of the method: as §1

[20] = tested on: NCI-H1651
Summary of the method: as §1

[21] = tested on: EPLC-272H
Summary of the method: as §1

With `Cc1sc2c(c1C)C(c1ccc(Cl)cc1)=N[C@@H](CC(=O)OC(C)(C)C)c1nnc(C)n1-2` [JQ1] + O=C(CCCCCCC(=O)Nc1ccccc1)NO [Vorinostat] (partner 1 µM) as the compound, how does the relative viability ([1]; first compound 0.04 µM) read?
The relative viability was 1.03.

What about the relative viability ([1]; first compound 0.4 µM) of the same compound?
Its relative viability is 0.79.

And the relative viability ([1]; first compound 1.265 µM)?
Its relative viability is 0.413.

What about the relative viability ([1]; first compound 4 µM) of the same compound?
The relative viability was 0.276.

What about the relative viability ([2]; first compound 0.04 µM) of the same compound?
Its relative viability is 1.12.

What about the relative viability ([2]; first compound 0.1265 µM) of the same compound?
The relative viability was 1.03.

And the relative viability ([2]; first compound 0.4 µM)?
The relative viability was 0.965.

And the relative viability ([2]; first compound 1.265 µM)?
Its relative viability is 0.788.

And the relative viability ([2]; first compound 4 µM)?
The relative viability was 0.578.

And the relative viability ([3]; first compound 0.04 µM)?
The relative viability was 0.524.

And the relative viability ([3]; first compound 0.1265 µM)?
The relative viability was 0.405.

What about the relative viability ([3]; first compound 0.4 µM) of the same compound?
Its relative viability is 0.325.

What about the relative viability ([3]; first compound 1.265 µM) of the same compound?
Its relative viability is 0.323.

What about the relative viability ([3]; first compound 4 µM) of the same compound?
The relative viability was 0.29.

And the relative viability ([4]; first compound 0.04 µM)?
Its relative viability is 0.43.

And the relative viability ([4]; first compound 0.1265 µM)?
Its relative viability is 0.295.

What about the relative viability ([4]; first compound 0.4 µM) of the same compound?
The relative viability was 0.425.

And the relative viability ([4]; first compound 1.265 µM)?
The relative viability was 0.242.

What about the relative viability ([4]; first compound 4 µM) of the same compound?
The relative viability was 0.192.

What about the relative viability ([5]; first compound 0.04 µM) of the same compound?
The relative viability was 0.769.

And the relative viability ([5]; first compound 0.1265 µM)?
The relative viability was 0.601.

What about the relative viability ([5]; first compound 0.4 µM) of the same compound?
The relative viability was 0.639.

And the relative viability ([5]; first compound 1.265 µM)?
Its relative viability is 0.474.

What about the relative viability ([5]; first compound 4 µM) of the same compound?
The relative viability was 0.398.

And the relative viability ([6]; first compound 0.04 µM)?
Its relative viability is 1.1.

What about the relative viability ([6]; first compound 0.1265 µM) of the same compound?
Its relative viability is 0.813.

And the relative viability ([6]; first compound 0.4 µM)?
The relative viability was 0.464.

And the relative viability ([6]; first compound 1.265 µM)?
Its relative viability is 0.32.

And the relative viability ([6]; first compound 4 µM)?
The relative viability was 0.273.

What about the relative viability ([7]; first compound 0.04 µM) of the same compound?
Its relative viability is 0.722.

What about the relative viability ([7]; first compound 0.1265 µM) of the same compound?
Its relative viability is 0.853.

And the relative viability ([7]; first compound 0.4 µM)?
The relative viability was 0.664.

And the relative viability ([7]; first compound 1.265 µM)?
Its relative viability is 0.548.

What about the relative viability ([7]; first compound 4 µM) of the same compound?
Its relative viability is 0.508.

And the relative viability ([8]; first compound 0.04 µM)?
The relative viability was 0.662.

What about the relative viability ([8]; first compound 0.1265 µM) of the same compound?
The relative viability was 0.619.

What about the relative viability ([8]; first compound 0.4 µM) of the same compound?
The relative viability was 0.694.

And the relative viability ([8]; first compound 1.265 µM)?
Its relative viability is 0.479.

What about the relative viability ([8]; first compound 4 µM) of the same compound?
The relative viability was 0.473.

What about the relative viability ([9]; first compound 0.04 µM) of the same compound?
Its relative viability is 0.658.

And the relative viability ([9]; first compound 0.1265 µM)?
The relative viability was 0.577.

And the relative viability ([9]; first compound 0.4 µM)?
Its relative viability is 0.423.

What about the relative viability ([9]; first compound 1.265 µM) of the same compound?
The relative viability was 0.234.

What about the relative viability ([9]; first compound 4 µM) of the same compound?
The relative viability was 0.225.

And the relative viability ([10]; first compound 0.04 µM)?
Its relative viability is 0.63.

What about the relative viability ([10]; first compound 0.1265 µM) of the same compound?
The relative viability was 0.38.

What about the relative viability ([10]; first compound 0.4 µM) of the same compound?
Its relative viability is 0.668.

What about the relative viability ([10]; first compound 1.265 µM) of the same compound?
The relative viability was 0.316.

And the relative viability ([10]; first compound 4 µM)?
The relative viability was 0.127.

And the relative viability ([11]; first compound 0.04 µM)?
Its relative viability is 0.832.

And the relative viability ([11]; first compound 0.1265 µM)?
Its relative viability is 0.536.

And the relative viability ([11]; first compound 0.4 µM)?
The relative viability was 0.581.

What about the relative viability ([11]; first compound 1.265 µM) of the same compound?
Its relative viability is 0.455.

What about the relative viability ([11]; first compound 4 µM) of the same compound?
Its relative viability is 0.375.

And the relative viability ([12]; first compound 0.04 µM)?
The relative viability was 0.6.

And the relative viability ([12]; first compound 0.1265 µM)?
Its relative viability is 0.372.

What about the relative viability ([12]; first compound 0.4 µM) of the same compound?
The relative viability was 0.44.

And the relative viability ([12]; first compound 1.265 µM)?
Its relative viability is 0.156.

And the relative viability ([12]; first compound 4 µM)?
Its relative viability is 0.106.

What about the relative viability ([13]; first compound 0.04 µM) of the same compound?
Its relative viability is 0.516.

What about the relative viability ([13]; first compound 0.1265 µM) of the same compound?
The relative viability was 0.327.

And the relative viability ([13]; first compound 0.4 µM)?
The relative viability was 0.401.

And the relative viability ([13]; first compound 1.265 µM)?
Its relative viability is 0.269.

What about the relative viability ([13]; first compound 4 µM) of the same compound?
The relative viability was 0.207.

What about the relative viability ([14]; first compound 0.04 µM) of the same compound?
The relative viability was 0.61.

What about the relative viability ([14]; first compound 0.4 µM) of the same compound?
The relative viability was 0.363.

And the relative viability ([14]; first compound 1.265 µM)?
Its relative viability is 0.278.

What about the relative viability ([14]; first compound 4 µM) of the same compound?
The relative viability was 0.188.

What about the relative viability ([15]; first compound 0.04 µM) of the same compound?
Its relative viability is 0.752.

What about the relative viability ([15]; first compound 0.1265 µM) of the same compound?
The relative viability was 0.57.

What about the relative viability ([15]; first compound 0.4 µM) of the same compound?
The relative viability was 0.639.

And the relative viability ([15]; first compound 1.265 µM)?
The relative viability was 0.505.

What about the relative viability ([15]; first compound 4 µM) of the same compound?
The relative viability was 0.491.

And the relative viability ([16]; first compound 0.04 µM)?
Its relative viability is 0.423.

And the relative viability ([16]; first compound 0.4 µM)?
Its relative viability is 0.367.

And the relative viability ([16]; first compound 1.265 µM)?
Its relative viability is 0.281.

And the relative viability ([16]; first compound 4 µM)?
The relative viability was 0.237.

And the relative viability ([17]; first compound 0.04 µM)?
The relative viability was 0.896.

And the relative viability ([17]; first compound 0.4 µM)?
The relative viability was 1.01.

And the relative viability ([17]; first compound 1.265 µM)?
The relative viability was 0.526.

And the relative viability ([17]; first compound 4 µM)?
Its relative viability is 0.428.

What about the relative viability ([18]; first compound 0.04 µM) of the same compound?
The relative viability was 0.95.

And the relative viability ([18]; first compound 0.1265 µM)?
Its relative viability is 0.464.

What about the relative viability ([18]; first compound 1.265 µM) of the same compound?
The relative viability was 0.904.

And the relative viability ([19]; first compound 0.04 µM)?
Its relative viability is 0.703.

And the relative viability ([19]; first compound 0.1265 µM)?
Its relative viability is 0.322.

And the relative viability ([19]; first compound 0.4 µM)?
Its relative viability is 0.488.

What about the relative viability ([19]; first compound 1.265 µM) of the same compound?
The relative viability was 0.277.

What about the relative viability ([19]; first compound 4 µM) of the same compound?
The relative viability was 0.319.

What about the relative viability ([20]; first compound 0.04 µM) of the same compound?
The relative viability was 0.615.

And the relative viability ([20]; first compound 0.1265 µM)?
Its relative viability is 0.472.

And the relative viability ([20]; first compound 0.4 µM)?
The relative viability was 0.445.

And the relative viability ([20]; first compound 1.265 µM)?
The relative viability was 0.416.

What about the relative viability ([20]; first compound 4 µM) of the same compound?
Its relative viability is 0.307.

What about the relative viability ([21]; first compound 0.04 µM) of the same compound?
Its relative viability is 0.473.

And the relative viability ([21]; first compound 0.1265 µM)?
Its relative viability is 0.391.

What about the relative viability ([21]; first compound 0.4 µM) of the same compound?
Its relative viability is 0.274.

And the relative viability ([21]; first compound 1.265 µM)?
The relative viability was 0.175.

And the relative viability ([21]; first compound 4 µM)?
Its relative viability is 0.206.
